Key:
[1] = tested on: TaKaLa LA Taq Hot Start Version (polymerase reaction); experiment: PCR control band in the separate telomerase reaction / PCR experiment; assay type: biochemical; conditions: 10 μM, no addition of λDNA
Method: Moreover, effects of inhibiting telomerase by TMPyP and anionic phthalocyanines were compared in Comparative Example 3 and Example 4 to 5 below. In these experiments, the S7700 kit was used similarly to the aforementioned Comparative Examples 1 to 2 and Examples 1 to 3. However, in Comparative Examples 1 to 2 and Examples 1 to 3 described above, the reagents required only for the telomerase reaction and PCR were all mixed first, and the telomerase reaction and PCR were carried out sequentially by regulating the reaction temperature. To the contrary, in the following Comparative Example 3 and Examples 4 to 5, only the reagents required for the telomerase reaction were first mixed to carry out a telomerase reaction, and a part of the reaction solution and the reagents required for the PCR were mixed to carry out the PCR.
Next, 4 μL of a solution prepared by diluting the solution after the telomerase reaction 20 times with milliQ water, 0.2 μL of 50× dNTP Mix, 0.2 μL of TS primer, 0.2 μL of Primer Mix, 0.1 μL of TaKaLa LA Taq Hot Start Version (manufactured by Takara Bio Inc.), 1 μL of 10× LA PCR buffer II (Mg^2+ plus) (buffer solution included in TaKaLa LA Taq Hot Start Version), and 4.3 μL of milliQ water were mixed to prepare a PCR solution in a total volume of 10 μL. Then, PCR was carried out by allowing this PCR solution to stand under temperature conditions in which a thermo cycle of: 30 sec at 95° C.; 30 sec at 59° C.; and 30 sec at 72° C. was repeated 30 times.
Finally, the solution after the PCR was electrophoresed on a 10% polyacrylamide gel, and stained with GelStar Nucleic Acid Stain (manufactured by Takara Bio Inc.). […] In the order from the leftmost lane, the results with final concentrations of TMPyP being 0 M, 0.1 μM, 0.3 μM, 1 μM, 3 μM and 10 μM are shown.

single-stranded DNA = experiment: Absorbance 480 to 800 nm of phthalocyanine mixed with single-stranded DNA solution; assay type: binding; conditions: 15 μM compound solution, DNA 50 μM, pH7
Method: A solution of 50 mM HEPES and 100 mM NaCl, pH7 (total volume: 100 μL) containing a single-stranded DNA consisting of a sequence of 5′-[…]-3′ sequence (SEQ ID NO: 3) at a concentration of 50 μM was prepared, which was incubated at 90° C. for 5 min, and thereafter cooled to 0° C. at a rate of temperature fall of 2° C./min, followed by finally incubating at 0° C. for 2 hrs. The DNA in thus resulting solution was a single-stranded DNA even after the incubation (hereafter, the solution referred to as “single-stranded DNA solution”).
(§1) Next, the aforementioned CuPC solution and single-stranded DNA solution, and the aforementioned CuPC solution and double-stranded DNA solution were similarly mixed, respectively. And then the absorbance of these liquid mixtures was measured at 480 to 800 nm. FIG. 9(A) and FIG. 9(B) show the results of the measurement in the cases of the single-stranded DNA solution and the double-stranded DNA solution, respectively.
as §1, with “NiPC” for “CuPC”, “respectively;” for “respectively. And then”, “11(A)” for “9(A)”, “11(B)” for “9(B)”, “respectively. In each drawing, the result obtained when the NC solution was used is also shown together.” for “respectively.”
as §1, with “PC” for “CuPC”, “respectively;” for “respectively. And then”, “mixture” for “mixtures”, “13(A)” for “9(A)”, “13(B)” for “9(B)”, “respectively. In each drawing, the result obtained when the NC solution was used is also shown together.” for “respectively.”
as §1, with “CoPC” for “CuPC”, “respectively, and” for “respectively. And”, “15(A)” for “9(A)”, “15(B)” for “9(B)”, “respectively. In each drawing, the result obtained when the NC solution was used is also shown together.” for “respectively.”

double-stranded DNA = experiment: Absorbance 480 to 800 nm of phthalocyanine mixed with double-stranded DNA solution; assay type: binding; conditions: 15 μM compound solution, DNA 50 μM, pH7
Method: A solution of 50 mM HEPES and 100 mM NaCl, pH7 (total volume: 100 μL) containing a single-stranded DNA consisting of a sequence of 5′-AGAAGAGAAAGA-3′ (SEQ ID NO: 4) and a single-stranded DNA consisting of a sequence of 5′-TCTTTCTCTTCT-3′ (SEQ ID NO: 5) at each concentration of 50 μM was prepared, which was incubated at 90° C. for 5 min, and thereafter cooled to 0° C. at a rate of temperature fall of 2° C./min, followed by finally incubating at 0° C. for 2 hrs. Since the aforementioned two kinds of DNAs are complementary to one another, both DNAs form a double-stranded DNA in the solution as a result of the incubation (hereafter, the solution referred to as “double-stranded DNA solution”).
as §1
as §1, with “NiPC” for “CuPC”, “respectively;” for “respectively. And then”, “11(A)” for “9(A)”, “11(B)” for “9(B)”, “respectively. In each drawing, the result obtained when the NC solution was used is also shown together.” for “respectively.”
as §1, with “PC” for “CuPC”, “respectively;” for “respectively. And then”, “mixture” for “mixtures”, “13(A)” for “9(A)”, “13(B)” for “9(B)”, “respectively. In each drawing, the result obtained when the NC solution was used is also shown together.” for “respectively.”
as §1, with “CoPC” for “CuPC”, “respectively, and” for “respectively. And”, “15(A)” for “9(A)”, “15(B)” for “9(B)”, “respectively. In each drawing, the result obtained when the NC solution was used is also shown together.” for “respectively.”

Substance	amplification of the PCR control (band) [1]	interaction with the single-stranded DNA (absorption spectrum vs NC solution) (single-stranded DNA)	interaction with the double-stranded DNA (absorption spectrum vs NC solution) (double-stranded DNA)
Nickel(II) phthalocyanine tetrasulfonic acid tetrasodium salt [NiPC]	not inhibited	an interaction did not occur	an interaction did not occur
Copper(II) phthalocyanine-3,4′,4″,4′″-tetrasulfonic acid tetrasodium salt [CuPC]	not inhibited	an interaction did not occur	an interaction did not occur

Reference: patent US20100261246A1, “METHOD FOR INHIBITING TELOMERASE REACTION” (PANASONIC CORPORATION, priority 2009, published 2010)
